Results as given in US9579319B2 (Redx Pharma PLC, priority 2013, dated 2017).

These molecules were tested on Hedgehog signalling pathway (assay: Gli-reporter NIH3T3 luciferase assay (Hedgehog pathway inhibition)). Settings: NIH3T3; Gli-reporter NIH-3T3 cells, recombinant mouse sonic hedgehog, 24 hours, luminescence; read-out: Category (Hedgehog pathway inhibition activity, IC50).
Format: cell-based
Experimental: In vitro biological evaluation of compounds of the invention was carried out using the procedure detailed below. The procedure provides activity data for the compounds of the invention against the Hedgehog signalling pathway. The activity is represented as IC50 values in Table 12 below.
The Gli-reporter NIH3T3 cell line (BPS Biosciences) was grown according to the suppliers recommendations. Briefly, cells were maintained in growth medium (DMEM supplemented with 10% calf serum, 1% Penicillin/Streptomycin, and 500 µg/mL of Geneticin) and grown at 37° C., 5% CO2. In order to passage cells they were first rinsed with phosphate buffered saline before the addition of 0.05% Trypsin/EDTA. Fresh growth media was added and the cells were transferred to a centrifuge tube, spun and resuspended at an appropriate cell density.
Gli-reporter NIH-3T3 cells were seeded at 20,000 cells/well into 96 well, poly-D-lysine coated white clear bottomed full area TC plates in growth media (without geneticin). Three wells were left with just media as cell free controls. Cells were then incubated for 24 hours at 37° C. in a 5% CO2.
Serial dilutions of the test compounds were prepared in 100% DMSO. 10 μl of compound or DMSO from each well was pipetted into a sterile, 0.5 ml deep well conical bottomed 96 well plate (intermediate plate). 190 μl of warmed assay media (Opti-MEM supplemented with 0.5% calf serum, 1% non-essential amino acids, 1 mM sodium pyruvate, 10 mM HEPES, 1% penicillin/Streptomycin) was then added to each well and mixed five times at 180 μl by electronic pipette to ensure homogeneity of the compound solution. This 1:20 dilution gives a top concentration of 50 μM in 5% DMSO, 95% assay media. 10 μl was pipetted from each well of the intermediate plate into a second deep well sterile plate. 490 μl of warm assay media was then added to each well and mixed five times at 300 μl. This gives a final top concentration of 1 μM in 0.1% DMSO.
After the 24 hour incubation, media was carefully removed by pipette and replaced with 45 μl of compound dilutions in triplicate. This was incubated for one hour at 37° C. in a 5% CO2. After an hour, 5 μl 10 μg/mL recombinant mouse sonic hedgehog (R&D Systems) was added to each well and the plates were incubated for a further 24 hours at 37° C., 5% CO2.
After 24 hours, plates were removed from the incubator and left to acclimatise to room temperature for 20 minutes. 50 μl of OneGLO assay reagent (Promega) was then added to each well and the plates gently shaken for a further 30 minutes. Plates were then read for luminescence on the EnVision plate reader (PerkinElmer).

SMILES | IC50 [nM]
Cn1nccc1-c1nnc(N2CCC(NCc3ccc(F)cc3)CC2)c2ccccc12 [Example 75, N-[(4-fluorophenyl)methyl]-1-[4-(2-methylpyrazol-3-yl)phthalazin-1-yl]piperidin-4-amine] | 200 to 2000
Cn1nccc1-c1nnc(N2CCC(NCc3ccc(F)cc3C(F)(F)F)CC2)c2cnccc12 [Example 49, N-[[4-fluoro-2-(trifluoromethyl)phenyl]methyl]-1-[1-(2-methylpyrazol-3-yl)pyrido[3,4-d]pyridazin-4-yl]piperidin-4-amine] | 10 to 200
CN(Cc1ccccc1F)C1CCN(c2nnc(-c3ccnn3C)c3ccccc23)CC1 [Example 64, (2-fluorophenyl)methyl-methyl-[1-[4-(2-methylpyrazol-3-yl)phthalazin-1-yl]-4-piperidyl]ammonium] | 10 to 200
CC(C)c1ccccc1CN(C)C1CCN(c2nnc(-c3ccnn3C)c3ccccc23)CC1 [Example 29, N-[(2-isopropylphenyl)methyl]-N-methyl-1-[4-(2-methylpyrazol-3-yl)phthalazin-1-yl]piperidin-4-amine] | 10 to 200
CN(Cc1ccc(F)cc1C(F)(F)F)C1CCN(c2ccc(-c3ccnn3C)nn2)CC1 [Example 42, N-[[4-fluoro-2-(trifluoromethyl)phenyl]methyl]-N-methyl-1-[6-(2-methylpyrazol-3-yl)pyridazin-3-yl]piperidin-4-amine] | < 10
CN(Cc1ccc(F)cc1F)C1CCN(c2nnc(-c3ccnn3C)c3ccccc23)CC1 [Example 67, N-[(2,4-difluorophenyl)methyl]-N-methyl-1-[4-(2-methylpyrazol-3-yl)phthalazin-1-yl]piperidin-4-amine] | 10 to 200
CN(Cc1ccc(C#N)cc1)C1CCN(c2nnc(-c3ccnn3C)c3ccccc23)CC1 [Example 60, 4-[[methyl-[1-[4-(2-methylpyrazol-3-yl)phthalazin-1-yl]-4-piperidyl]amino]methyl]benzonitrile] | 10 to 200
COc1ccccc1NC(=O)NC1CCN(c2nnc(-c3ccnn3C)c3ccccc23)CC1 [Example 15, 1-(2-methoxyphenyl)-3-[1-[4-(2-methylpyrazol-3-yl)phthalazin-1-yl]-4-piperidyl]urea] | < 10
Cn1nccc1-c1nnc(N2CCC(NCc3cccc(C(F)(F)F)c3)CC2)c2ccccc12 [Example 39, 1-[4-(2-methylpyrazol-3-yl)phthalazin-1-yl]-N-[[3-(trifluoromethyl)phenyl]methyl]piperidin-4-amine] | 10 to 200
CN(Cc1ccc(F)cc1C(F)(F)F)C1CCN(c2nnc(-c3ccnn3C)c3ccccc23)CC1 [Example 78, N-[[4-fluoro-2-(trifluoromethyl)phenyl]methyl]-N-methyl-1-[4-(2-methylpyrazol-3-yl)phthalazin-1-yl]piperidin-4-amine] | < 10
CN(Cc1cccc(F)c1)C1CCN(c2nnc(-c3ccnn3C)c3ccccc23)CC1 [Example 65, (3-fluorophenyl)methyl-methyl-[1-[4-(2-methylpyrazol-3-yl)phthalazin-1-yl]-4-piperidyl]ammonium] | 10 to 200
CSc1ccccc1CNC1CCN(c2nnc(-c3ccnn3C)c3ccccc23)CC1 [Example 17, 1-[4-(2-methylpyrazol-3-yl)phthalazin-1-yl]-N-[(2-methylsulfanylphenyl)methyl]piperidin-4-amine] | 10 to 200

Same assay, conditions: NIH3T3; Gli-reporter NIH-3T3 cells, recombinant mouse sonic hedgehog, 24 hours, luminescence; read-out: Gli Luc nM (IC50)

SMILES | IC50 [nM]
CN(Cc1ccc(F)cc1C(F)(F)F)C1CCN(c2ccc(-c3ccnn3C)nn2)CC1 [Example 42, N-[[4-fluoro-2-(trifluoromethyl)phenyl]methyl]-N-methyl-1-[6-(2-methylpyrazol-3-yl)pyridazin-3-yl]piperidin-4-amine] | 0.04

Same assay, conditions: NIH3T3; Gli-reporter NIH-3T3 cells, recombinant mouse sonic hedgehog, 24 hours, luminescence; read-out: Gli luc IC50

SMILES | IC50 [nM]
Cn1nccc1-c1nnc(N2CCC(N(Cc3ccc(F)cc3C(F)(F)F)C3CC3)CC2)c2ccccc12 [Example 94, N-cyclopropyl-N-[[4-fluoro-2-(trifluoromethyl)phenyl]methyl]-1-[4-(2-methylpyrazol-3-yl)phthalazin-1-yl]piperidin-4-amine] | > 200
CN(Cc1ccc(F)cc1Cl)C1CCN(c2nnc(-c3ccnn3C)c3ccccc23)CC1 [Example 158, N-[(2-chloro-4-fluoro-phenyl)methyl]-N-methyl-1-[4-(2-methylpyrazol-3-yl)phthalazin-1-yl]piperidin-4-amine] | 10 to 200
Cc1c(-c2ccnn2C)nnc(N2CCC(N(C)C(=O)Nc3ccc(F)cc3)CC2)c1C [Example 113, 1-[1-[4,5-dimethyl-6-(2-methylpyrazol-3-yl)pyridazin-3-yl]-4-piperidyl]-3-(4-fluorophenyl)-1-methyl-urea] | > 200
Cc1c(-c2ccnn2C)nnc(N2CCC(N(C)Cc3ccccc3[N+](=O)[O-])CC2)c1C [Example 81, 1-[4,5-dimethyl-6-(2-methylpyrazol-3-yl)pyridazin-3-yl]-N-methyl-N-[(2-nitrophenyl)methyl]piperidin-4-amine] | < 10
Cc1c(-c2ccnn2C)nnc(N2CCC(N(C)C(=O)Nc3cnncc3C(F)(F)F)CC2)c1C [Example 107, 1-[1-[4,5-dimethyl-6-(2-methylpyrazol-3-yl)pyridazin-3-yl]-4-piperidyl]-1-methyl-3-[5-(trifluoromethyl)pyridazin-4-yl]urea] | > 200
Cn1nccc1-c1nnc(N2CCC(NCc3cccc(F)c3F)CC2)c2ccccc12 [Example 163, N-[(2,3-difluorophenyl)methyl]-1-[4-(2-methylpyrazol-3-yl)phthalazin-1-yl]piperidin-4-amine] | 10 to 200
Cc1c(-c2ccnn2C)nnc(N2CCC(N(C)Cc3ccccc3C(C)C)CC2)c1C [Example 82, 1-[4,5-dimethyl-6-(2-methylpyrazol-3-yl)pyridazin-3-yl]-N-[(2-isopropylphenyl)methyl]-N-methyl-piperidin-4-amine] | 10 to 200
CN(C1CCN(c2nnc(-c3ccnn3C)c3c2CCC3)CC1)S(=O)(=O)c1ccc(F)cc1C(F)(F)F [Example 124, 4-fluoro-N-methyl-N-[1-[1-(2-methylpyrazol-3-yl)-6,7-dihydro-5H-cyclopenta[d]pyridazin-4-yl]-4-piperidyl]-2-(trifluoromethyl)benzenesulfonamide] | 10 to 200
CN(Cc1ccccc1[N+](=O)[O-])C1CCN(c2nnc(-c3ccnn3C)c3ccccc23)CC1 [Example 114, N-methyl-1-[4-(2-methylpyrazol-3-yl)phthalazin-1-yl]-N-[(2-nitrophenyl)methyl]piperidin-4-amine] | 10 to 200
Cn1nccc1-c1nnc(N2CCC(NCc3ccc(F)cc3C(F)(F)F)CC2)c2ncccc12 [Example 146, N-[[4-fluoro-2-(trifluoromethyl)phenyl]methyl]-1-[5-(2-methylpyrazol-3-yl)pyrido[2,3-d]pyridazin-8-yl]piperidin-4-amine] | > 200
CN(C(=O)Nc1ccc(F)cc1C(F)(F)F)C1CCN(c2nnc(-c3ccnn3C)c3c2CCC3)CC1 [Example 125, 3-[4-fluoro-2-(trifluoromethyl)phenyl]-1-methyl-1-[1-[1-(2-methylpyrazol-3-yl)-6,7-dihydro-5H-cyclopenta[d]pyridazin-4-yl]-4-piperidyl]urea] | < 10
COc1cc(-c2nnc(N3CCC(NCc4ccc(F)cc4C(F)(F)F)CC3)c(C)c2C)ccn1 [Example 121, N-[[4-fluoro-2-(trifluoromethyl)phenyl]methyl]-1-[6-(2-methoxy-4-pyridyl)-4,5-dimethyl-pyridazin-3-yl]piperidin-4-amine] | > 200
CN(C(=O)Nc1ccc(F)cc1F)C1CCN(c2nnc(-c3ccnn3C)c3cccnc23)CC1 [Example 136, 3-(2,4-difluorophenyl)-1-methyl-1-[1-[5-(2-methylpyrazol-3-yl)pyrido[2,3-d]pyridazin-8-yl]-4-piperidyl]urea] | 10 to 200
Cn1nccc1-c1nnc(N2CCC(NC(=O)Nc3ccc(F)cc3F)CC2)c2cnccc12 [Example 104, 1-(2,4-difluorophenyl)-3-[1-[1-(2-methylpyrazol-3-yl)pyrido[3,4-d]pyridazin-4-yl]-4-piperidyl]urea] | 10 to 200
CN(Cc1ccc(F)cc1C(F)(F)F)C1CCN(c2nnc(-c3ccnn3C)c3c2CCC3)CC1 [Example 132, N-[[4-fluoro-2-(trifluoromethyl)phenyl]methyl]-N-methyl-1-[1-(2-methylpyrazol-3-yl)-6,7-dihydro-5H-cyclopenta[d]pyridazin-4-yl]piperidin-4-amine] | 10 to 200
Cc1c(-c2ccnn2C)nnc(N2CCC(N(C)Cc3ccccc3C#N)CC2)c1C [Example 87, 2-[[[1-[4,5-dimethyl-6-(2-methylpyrazol-3-yl)pyridazin-3-yl]-4-piperidyl]-methyl-amino]methyl]benzonitrile] | 10 to 200
